The nature of data set [1]: Cell cytotoxicity 50 assay (CC50), MB200 cells, cell titer glo. Type of data set: cell-based. The following applies: human. The protocol:
Cell Cytotoxicity 50 Assay Protocol (CC50) MB200 cells were grown until 80% confluent in F10 media supplemented with rhFGF basic (10 ng/ml), 15% fetal bovine serum, 1% penicillin streptomycin, 1% amphotericin B, and 1 μM dexamethasone. Adherent MB200 cells growing on 10 cm plate were then trypsinized with 1 ml of trypsin. Once the cells detached from the plate, F10 media (10 mL) was added, and the cells were strained through a 70 μm cell strainer. The cells were counted using a mixture of 10 μL cell suspension with 10 μL of trypan blue. Once the total number of cells were counted, a dilution of 200 k/mL was prepared, and the cells were seeded with 10 k cells/well in a 96-well plate in triplicate, making sure to avoid seeding cells in the edges of the plate to avoid edge effects. Using a multichannel pipet, the 200 k/mL cell dilution (50 μL/well) was added into wells B2-B11, C2-C11, and D2-D11 in triplicate. Into a deep well block (DWB), the media for the appropriate cell line (450 μL/well) was added into wells 1-10. Into DWB well 2, 10 mM of drug solution (13.5 μL) was added, followed by an additional volume of the medium (225 μL). The well was pipetted up/down four times. A portion (225 μL) was transferred to well 3, and this process was repeated up to well 10. Using a multichannel pipet, a smaller portion (50 μL/well) was removed from all wells in the DWB and then dispensed on top of the cells in each corresponding row. After adding the drug, the plate was incubated at 37° C. for 72 h. Using a multi-channel pipet, pre-warmed cell titer glo reagent (Promega) (100 μL) was added into every well. After 5 minutes, the total luminescence was measured with a luminometer. CC50 was determined with GraphPad prism template.

A short description of data set [2]: Cell cytotoxicity 50 assay (CC50), HEK cells. Type of data set: cell-based. To be noted: human. The protocol: Cell Cytotoxicity 50 Assay Protocol (CC50) Into a deep well block (DWB), the media for the appropriate cell line (450 μL/well) was added into wells 1-10. Into DWB well 2, 10 mM of drug solution (13.5 μL) was added, followed by an additional volume of the medium (225 μL). The well was pipetted up/down four times. A portion (225 μL) was transferred to well 3, and this process was repeated up to well 10. Using a multichannel pipet, a smaller portion (50 μL/well) was removed from all wells in the DWB and then dispensed on top of the cells in each corresponding row. After adding the drug, the plate was incubated at 37° C. for 72 h. Using a multi-channel pipet, pre-warmed cell titer glo reagent (Promega) (100 μL) was added into every well. After 5 minutes, the total luminescence was measured with a luminometer. CC50 was determined with GraphPad prism template.

Where only a bound is given, the exact number is not on record here.

In the case of `Cc1ccc2nc(-c3ccc(NC(=O)CCN4C(=O)CCC4=O)cc3)sc2c1` [Compound 2], the figures for the CC50 at 72 h in data set [1] and in data set [2] were 1 to 10 µM and greater than 10 µM, respectively.
On the same counts, the results for `CCOCCCC(=O)Nc1ccc(-c2nc3ccccc3s2)cc1` [Compound 3] are 1 to 10 µM and 1 to 10 µM.
With `CC(=O)CCCC(=O)Nc1ccc(-c2nc3ccc(C)cc3s2)cc1` [Compound 4], the CC50 at 72 h in data set [1] and in data set [2] was greater than 10 µM throughout.
`O=C(CCN1C(=O)CCC1=O)Nc1ccc(-c2nc3ccccc3s2)cn1` [Compound 6]: the CC50 at 72 h in data set [1] and in data set [2] was greater than 10 µM throughout.
Regarding `O=C(CCc1ccncc1)Nc1ccc(-c2nc3ccccc3s2)cc1` [Compound 12], the CC50 at 72 h in data set [1] and in data set [2] was greater than 10 µM in each case.
For `CCOCCCC(=O)Nc1ccc(-c2nc3ccc(C)cc3s2)cc1` [Compound 17], the CC50 at 72 h in data set [1] and in data set [2] was 1 to 10 µM in each case.
For the compound `CC(=O)OCCCC(=O)Nc1ccc(-c2nc3ccccc3s2)cc1` [Compound 19], the CC50 at 72 h in data set [1] and in data set [2] was greater than 10 µM each time.
On to `CC(=O)CCCC(=O)Nc1ccc(-c2nc3ccccc3s2)cc1` [Compound 20], for which the CC50 at 72 h in data set [1] and in data set [2] was greater than 10 µM each time.
With `O=C(CCN1C(=O)CCC1=O)Nc1ccc(-c2nc3ccccc3s2)o1` [Compound 24], the CC50 at 72 h in data set [1] and in data set [2] was greater than 10 µM throughout.
Take `CC(=O)NCCC(=O)Nc1ccc(-c2nc3ccc(C)cc3s2)cc1` [Compound 35]: the CC50 at 72 h in data set [1] and in data set [2] was greater than 10 µM throughout.
For `CC(=O)NCCC(=O)Nc1coc(-c2nc3ccccc3s2)c1` [Compound 42], the CC50 at 72 h in data set [1] and in data set [2] was greater than 10 µM in each case.
Consider `CC(=O)NCCC(=O)Nc1ccc(-c2nc3ccc(F)cc3s2)cc1` [Compound 45], for which the CC50 at 72 h in data set [1] and in data set [2] was greater than 10 µM throughout.
In the case of `CC(=O)NCCC(=O)Nc1ccc(-c2nc3cc(Cl)ccc3s2)cc1` [Compound 47], the CC50 at 72 h in data set [1] and in data set [2] was greater than 10 µM throughout.
For `O=C(CCn1ccnn1)Nc1ccc(-c2nc3ccccc3s2)cc1` [Compound 48], the CC50 at 72 h in data set [1] and in data set [2] was greater than 10 µM each time.
For the compound `O=C(CCN1CCCC1=O)Nc1ccc(C(=O)c2nc3ccccc3s2)cc1` [Compound 50], the CC50 at 72 h in data set [1] and in data set [2] was greater than 10 µM in each case.
With `O=C(CCc1ncccn1)Nc1ccc(-c2nc3ccccc3s2)cc1` [Compound 51], the half-maximal cytotoxic concentration (CC50) at 72 h in data set [1] and in data set [2] was greater than 10 µM in each case.
In the case of `O=C(CCc1cocn1)Nc1ccc(-c2nc3ccccc3s2)cc1` [Compound 57], the CC50 at 72 h in data set [1] and in data set [2] was greater than 10 µM throughout.
On to `CC(=O)NCCC(=O)Nc1ccc(-c2nc3cnccc3s2)cc1` [Compound 58], for which the CC50 at 72 h in data set [1] and in data set [2] was greater than 10 µM in each case.
On to `O=C(CCCc1cnco1)Nc1ccc(-c2nc3ccccc3s2)cc1` [Compound 63], for which the CC50 at 72 h in data set [1] was greater than 10 µM; in data set [2], 1 to 10 µM.
On to `O=C(CCCc1cnco1)Nc1coc(-c2nc3ccccc3s2)c1` [Compound 68], for which the CC50 at 72 h in data set [1] and in data set [2] was greater than 10 µM in each case.
As for `CC(=O)NCCCC(=O)Nc1ccc(-c2ncc(Cl)s2)cc1` [Compound 78], the CC50 at 72 h in data set [1] and in data set [2] was greater than 10 µM in each case.
On to `O=C(CCCN1C(=O)CCC1=O)Nc1nc2ccccc2s1` [Compound 82], for which the CC50 at 72 h in data set [1] and in data set [2] was greater than 10 µM each time.
Take `O=C1CCC(=O)N1[C@H]1C[C@H](C(=O)Nc2ccc(-c3nc4ccccc4s3)cc2)C1` [Compound 96]: the half-maximal cytotoxic concentration (CC50) at 72 h in data set [1] and in data set [2] was greater than 10 µM in each case.
Consider `O=C(CCCc1cocn1)Nc1ccc(-c2nc3cc(F)ccc3s2)cc1` [Compound 99], for which the half-maximal cytotoxic concentration (CC50) at 72 h in data set [1] and in data set [2] was greater than 10 µM each time.
Consider `CC(=O)NC1CC1C(=O)Nc1ccc(-c2nc3ccccc3s2)cc1` (stereo not drawn) [Compound 100], for which the CC50 at 72 h in data set [1] and in data set [2] was greater than 10 µM each time.
For `N#CCCCC(=O)Nc1ccc(-c2nc3ccccc3s2)cc1` [Compound 124], the CC50 at 72 h in data set [1] and in data set [2] was greater than 10 µM in each case.
Take `CC(=O)NCCCC(=O)Nc1ccc(-c2nc3ccccc3s2)cc1C` [Compound 125]: the cytotoxic concentration (CC50) at 72 h in data set [1] and in data set [2] was greater than 10 µM throughout.
With `CC(=O)NCCCC(=O)Nc1ccc(-c2ncc(-c3ccccc3)s2)cc1` [Compound 132], the CC50 at 72 h in data set [1] and in data set [2] was greater than 10 µM throughout.
For `O=C(CCCN1C(=O)CCC1=O)Nc1ccc(-c2nc3ccccc3s2)o1` [Compound 168], the CC50 at 72 h in data set [1] and in data set [2] was greater than 10 µM throughout.
Regarding `O=C(CCC1CCC(=O)N1)Nc1ccc(-c2nc3ccccc3s2)cc1` (stereo not drawn) [Compound 176], the figures for the CC50 at 72 h in data set [1] and in data set [2] were 1 to 10 µM and greater than 10 µM, respectively.
